From patent US10662189B2, “PDE4 inhibitor” (SHIJIAZHUANG SAGACITY NEW DRUG DEVELOPMENT CO., LTD., priority 2016, dated 2020)

Columns and labels:
[1] = system: collagen-induced arthritis in mice; assay: In vivo CIA model (collagen-induced mouse arthritis); design: species or system DBA/1 mice; conditions: for total pathological score (two hind limbs, HE staining): Mean±SEM
Text: The collagen-induced mouse arthritis model is an animal model for evaluating the therapeutic effect of drug treatment for psoriatic arthritis, of which pathogenesis and symptoms are obviously related to psoriatic arthritis. The model activated the reactivity of B cells and T cells to collagen by the injection of type II collagen. The activated B cells and T cells were attracted to the joints to cause the inflammation, thereby triggering a series of symptoms related to human psoriatic arthritis, such as redness and swelling of the joints, articular cartilage, joint capsule damage and other symptoms. Collagen-induced mouse arthritis is often used to evaluate the therapeutic effect during preclinical evaluation of candidate compounds for the medication for treating psoriatic arthritis.
The purpose of the experiment was to examine the therapeutic effect of the compound WX063 of embodiment 63 on collagen-induced arthritis in mice, thereby providing the preclinical pharmacodynamics information for subsequent clinical studies.
Mice were randomly divided into different treatment groups. The first immunization day is recorded as Day 0, and the following days were recorded in order.
After the DBA/1 mice were anesthetized with isoflurane, the prepared collagen emulsion was subcutaneously injected into the tail.
On Day 23, 100 μL of LPS solution was administered intraperitoneally.
On day 27, as the mean clinical score reached about 1 point, 60 mice with moderate disease were selected and re-randomized according to body weight and score, with 10 mice per group.
Dexamethasone as a positive control drug was administered at a dose of 0.3 mg/kg, which was common in the CIA model. […] It was administered once a day for a total of 11 days. The volume of the intragastric administration was 10 mL/kg.
Clinical observation: From Day 7 before immunization to Day 23 after immunization, the basic health status and the body weight changes of the DBA/1 mice were observed daily (recorded once a week). After Day 23, the health status, the arthritis incidence and the body weight changes of the mice were observed daily (recorded at least three times a week) until the end of the experiment.
Clinical score: After LPS injection, the arthritis incidence of mice was observed daily. As the clinical symptoms of arthritis occurred, the degree of disease was scored according to the standards of 0-4 (redness, joint deformation) at least three times a week, wherein the highest score for each limb was 4 points, and the highest score for each animal was 16 points. […].
Pathology: On day 38, the mice were euthanized. The hind limbs of the mice were taken, soaked in the 10% formalin solution, decalcified with formic acid solution, embedded in paraffin, sectioned, and stained with hematoxylin-eosin and photographed by microscopy. The degree of joint damage was evaluated from four aspects: inflammatory cell infiltration, formation of […], cartilage damage and bone resorption, and scored according to the standards of 0-4.
The experimental data were expressed as mean value±standard error of mean (Mean±SEM). The body weight and the clinical scores were analyzed by double factor variance (two-way ANOVA). Pathological scores and AUC were tested by T test. p<0.05 was considered as significant difference.

[2] = target: Recombinant human PDE4B (Homo sapiens (Human), UniProt Q07343); assay: Inhibitory activity against PDE 4B in vitro (fluorescence polarization, Transcreener AMP2/GMP2); type: biochemical; conditions: 1 μM cAMP
Recombinant human PDE4B, sequence (Q07343 305-736 limits assumed): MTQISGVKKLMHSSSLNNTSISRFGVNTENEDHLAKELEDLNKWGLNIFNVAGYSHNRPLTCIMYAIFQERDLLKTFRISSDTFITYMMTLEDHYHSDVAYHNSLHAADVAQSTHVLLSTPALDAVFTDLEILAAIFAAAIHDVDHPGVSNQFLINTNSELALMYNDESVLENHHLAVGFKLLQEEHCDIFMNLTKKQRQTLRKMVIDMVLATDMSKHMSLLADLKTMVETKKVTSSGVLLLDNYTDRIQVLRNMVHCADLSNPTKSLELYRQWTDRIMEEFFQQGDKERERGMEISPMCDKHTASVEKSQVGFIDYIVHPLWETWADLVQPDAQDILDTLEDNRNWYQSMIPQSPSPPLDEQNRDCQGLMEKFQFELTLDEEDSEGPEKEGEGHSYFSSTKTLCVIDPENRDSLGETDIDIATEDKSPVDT
Method: Inhibitory activity of the compounds against PDE 4B
The enzyme activity was indicated by measuring the AMP/GMP expression and tracing AMP/GMP antibody binding based on fluorescence polarization in the biological assay.
10 mM Tris-HCl (pH 7.5), 5 mM MgCl2, 0.01% Brij 35, 1 mM DTT and 1% DMSO.
Recombinant human PDE4B (Gen accession number: NM_002600; amino acid 305 end) was expressed by baculovirus in Sf9 insect cells using an N-terminal GST tag. MW=78 kDa.
Transcreener® AMP2/GMP2 antibody and AMP2/GMP2 AlexaFluor633 tracer
i) Recombinant human PDE4B and the enzyme substrate (1 μM cAMP) were dissolved in the newly-prepared buffer solution, respectively.
ii) The PDE4B buffer solution defined as above was transferred into the reaction wells.
iii) The compound which was dissolved in 100% DMSO was added to the reaction wells of the PDE4B buffer solution by ultrasonic oscillator (echo 550; nanoliter range) and incubated at room temperature for 10 minutes.
iv) The enzymatic buffer solution was then added to the reaction wells defined as above to initiate the reaction.
v) The reaction was incubated at room temperature for 1 hour.
vi) The reaction was terminated by adding detecting mixture (Transcreener® AMP2/GMP2 antibody and AMP2/GMP2 AlexaFluor633 tracer) and incubated for 90 minutes with slowly mixing. The measurement range of fluorescence polarization is Ex/Em=620/688.
The fluorescence polarization signal was converted into nM according to the AMP/GMP standard curve and the percent enzyme activity relative to DMSO calculated by Excel. GraphPad Prism was used to plot the curves (Drawing Medicine Icon).

[3] = system: LPS-induced TNFα from the peripheral monocytes of human; assay: Inhibitory effect against LPS-induced TNFα in hPBMC in vitro (ELISA); type: cell-based; conditions: Monocyte, TNFα in supernatant, 24 hours
Method: Inhibitory activity of the compounds against the LPS-induced TNFα from the peripheral monocytes of human.
1. Whole blood in normal human was collected and EDTA-K2 was used as anticoagulant.
2. PBMC was isolated by Ficoll density gradient centrifugation. The concentration of the cells was adjusted to 2×10^6/mL.
3. 2×10^5 of cells were seed in per well of the 96-well U-bottom plate, followed by the addition of 200 μL/well of LPS with 1 ng/mL and 200 μL/per well of the compound with different concentration: […], 100 pM and 10 pM, with two duplicates of each concentration.
4. The reaction was incubated for 24 hours and the supernatant was collected.
5. ELISA was used to detect the level of TNFα in the supernatant and Graphpad Prism software was used to plot the inhibition curve and calculate the value of IC50.

## CCOc1cc([C@@H](CS(C)(=O)=O)N2C(=O)c3cccc(NC(C)=O)c3C2=O)ccc1OC [Apremilast, reference compound]
[1]; 5 mg/kg intragastric once a day, Day 37
  mean clinical score: 4.2 points
[1]; 5 mg/kg, Day 37
  mean clinical score lower compared with the vehicle control group: 3.7 points
[1]; 5 mg/kg
  total pathological score (two hind limbs, HE staining): 13.90±1.89

## C[C@@H]1C[C@H]2[C@@H]3CCC4=CC(=O)C=C[C@]4(C)[C@@]3(F)[C@@H](O)C[C@]2(C)[C@@]1(O)C(=O)CO [Dexamethasone, reference compound]
[1]; 0.3 mg/kg
  percentage inhibition of clinical score AUC relative to the vehicle control group: 96.4%
[1]; 0.3 mg/kg intragastric once a day, Day 30 and maintained to the end of the trial
  clinical score: 0 points

## CCOc1cc([C@@H](CS(C)(=O)=O)n2c(=O)n(C)c3cc(-c4ccccc4F)cnc32)ccc1OC [WX057]
[2]
  IC50: 1.25 nM
[3]
  IC50: 3.4 nM

## CCOc1cc([C@@H](CS(C)(=O)=O)n2c(=O)[nH]c3c(C)c(-c4ccccc4F)cnc32)ccc1OC [WX063]
[1]; 0.3 mg/kg
  percentage inhibition of clinical score AUC relative to the vehicle control group: 43.9%
[1]; 0.3 mg/kg intragastric once a day, Day 37
  mean clinical score: 3.6 points
[1]; 1 mg/kg
  percentage inhibition of clinical score AUC relative to the vehicle control group: 39.4%
  total pathological score (two hind limbs, HE staining): 14.00±2.43
[1]; 1 mg/kg intragastric once a day, Day 37
  mean clinical score: 4.3 points
[1]; 3 mg/kg
  percentage inhibition of clinical score AUC relative to the vehicle control group: 51.7%
  therapeutic effect (clinical score and arthritis pathology score) versus Apremilast 5 mg/kg (in words): better than the one of Apremilast
  total pathological score (two hind limbs, HE staining): 9.20±1.83
[1]; 3 mg/kg intragastric once a day, Day 37
  mean clinical score: 3.5 points
[1]; doses of 0.3, 1 and 3 mg/kg
  treatment of collagen-induced arthritis and pathological changes of arthritis (in words): significant improvement
[2]
  IC50: 0.685 nM
[3]
  IC50: 0.56 nM

## CCOc1cc([C@@H](CS(C)(=O)=O)n2c(=O)[nH]c3c(-c4ccccc4F)ccnc32)ccc1OC [WX065]
[2]
  IC50: 1.87 nM
[3]
  IC50: 8.8 nM

## CCOc1cc([C@@H](CS(C)(=O)=O)n2c(=O)[nH]c3c(-c4ccccc4)ccnc32)ccc1OC [WX066]
[2]
  IC50: 2.48 nM
[3]
  IC50: 3.8 nM

## CCOc1cc([C@@H](CS(C)(=O)=O)n2c(=O)[nH]c3c(-c4cnn(C)c4)ccnc32)ccc1OC [WX067]
[2]
  IC50: 18.5 nM
[3]
  IC50: 6.4 nM

## CCOc1cc(C(CS(C)(=O)=O)n2c(=O)[nH]c3cc(-c4ccccc4)cnc32)ccc1OC(F)F (stereo not drawn) [WX074]
[2]
  IC50: 1.03 nM

## CCOc1cc(C(CS(C)(=O)=O)n2c(=O)[nH]c3c(C)c(C)cnc32)ccc1OC(F)F (stereo not drawn) [WX075]
[2]
  IC50: 5.39 nM

## CCOc1cc(C(CS(C)(=O)=O)n2c(=O)[nH]c3c(C)c(-c4ccccc4F)cnc32)ccc1OC(F)F (stereo not drawn) [WX076]
[2]
  IC50: < 0.5 nM

## CCOc1cc(C(CS(C)(=O)=O)n2c(=O)[nH]c3c(C)c(-c4ccccc4)cnc32)ccc1OC(F)F (stereo not drawn) [WX077]
[2]
  IC50: 1.01 nM

## CCOc1cc(C(CS(C)(=O)=O)n2c(=O)[nH]c3c(-c4ccccc4)ccnc32)ccc1OC(F)F (stereo not drawn) [WX078]
[2]
  IC50: < 0.5 nM
